Reference: US8247211B2, “Glycopeptide antibiotics” (American Cyanamid Company, priority 2001, dated 2012)
Values after ≈ are worked out from the molar mass of the structure shown. Values belong to the compound of their own block, whether it stands above or below them.

What was measured:
Assay in all cases: In vitro antibacterial evaluation: minimum inhibitory concentration (MIC), broth dilution method
Assay type in all cases: cell-based
[1] = tested on: Enterococcus sp.; conditions: 18 hours at 35° C.
Outline: (§1)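 An MIC is reported for each organism as the least concentration giving inhibition, using broth dilution over 64-0.06 μg/mL with a 5×10^5 CFU/mL inoculum.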

[2] = tested on: Escherichia coli; conditions: 18 hours at 35° C.
Outline: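 Using Muller-Hinton II […] and an inoculum of 5×10^5 CFU/mL, antibiotic dilutions from 64 down to 0.06 μg/mL were tested following NCCLS M7-A2. The MIC is the lowest concentration inhibiting growth, including in methicillin-, penicillin- or vancomycin-resistant clinical isolates.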

[3] = tested on: Staphylococcus sp.; conditions: for MIC Staphylococcus aureus (ATCC 29213): strain ATCC 29213; for MIC Staphylococcus aureus (GC 1131): strain GC 1131; for MIC Staphylococcus aureus (GC 3051): strain GC 3051; for MIC Staphylococcus aureus (GC 3053): strain GC 3053; for MIC Staphylococcus aureus (GC 4541): strain GC 4541; for MIC Staphylococcus aureus (GC 4542): strain GC 4542; for MIC Staphylococcus aureus-SMITH (GC 4543): strain GC 4543; for MIC Staphylococcus aureus (GC 4544): strain GC 4544; for MIC Staphylococcus aureus (GC 4545): strain GC 4545; for MIC Staphylococcus haemolyticus (GC 4546): strain GC 4546; for MIC Coagulase Negative Staphylococcus (GC 4547): strain GC 4547; for MIC Coagulase Negative Staphylococcus (GC 4548): strain GC 4548; for MIC Coagulase Negative Staphylococcus (GC 4549): strain GC 4549; for MIC Coagulase Negative Staphylococcus (GC 4551): strain GC 4551; for MIC Coagulase Negative Staphylococcus (GC 6257): strain GC 6257
Outline: as §1

[4] = tested on: Streptococcus sp.; conditions: 18 hours at 35° C.
Outline: as §1

[5] = Enterococcus faecalis (ATCC 29212)
[6] = Enterococcus faecalis (GC 2242)
[7] = Enterococcus faecalis (GC 2691)
[8] = Enterococcus faecalis (GC 3059)
[9] = Enterococcus faecalis (GC 4552)
[10] = Enterococcus faecalis (GC 4553)
[11] = Enterococcus faecalis (GC 4554)
[12] = Enterococcus faecalis (GC 6189)
[13] = broth dilution, inoculum 5×10^5 CFU/mL
[14] = Streptococcus agalactiae (GC 4564)
[15] = Streptococcus pneumoniae (ATCC 6301)
[16] = Streptococcus pneumoniae (GC 1894)
[17] = Streptococcus pneumoniae (GC 4565)
[18] = Streptococcus pyogenes (GC 4563)

MIC Enterococcus avium (GC 4558) ([1]; Enterococcus avium (GC 4558)): 4 µg/mL (≈ 2.74 µM)
MIC Enterococcus faecalis (ATCC 29212) [1, 5]: 16 µg/mL (≈ 11 µM)
MIC Enterococcus faecalis (GC 2242) [1, 6]: 8 µg/mL (≈ 5.49 µM)
MIC Enterococcus faecalis (GC 2691) [1, 7]: 8 µg/mL (≈ 5.49 µM)
MIC Enterococcus faecalis (GC 3059) [1, 8]: 8 µg/mL (≈ 5.49 µM)
MIC Enterococcus faecalis (GC 4552) [1, 9]: 16 µg/mL (≈ 11 µM)
MIC Enterococcus faecalis (GC 4553) [1, 10]: 8 µg/mL (≈ 5.49 µM)
MIC Enterococcus faecalis (GC 4554) [1, 11]: 16 µg/mL (≈ 11 µM)
MIC Enterococcus faecalis (GC 6189) [1, 12]: 8 µg/mL (≈ 5.49 µM)
MIC Enterococcus faecium (GC 2243) ([1]; Enterococcus faecium (GC 2243)): 8 µg/mL (≈ 5.49 µM)
MIC Enterococcus faecium (GC 4556) ([1]; Enterococcus faecium (GC 4556)): 8 µg/mL (≈ 5.49 µM)
MIC Enterococcus faecium (GC 4557) ([1]; Enterococcus faecium (GC 4557)): 4 µg/mL (≈ 2.74 µM)
MIC Enterococcus avium (GC 4558) [1, 13]: 4 µg/mL (≈ 2.74 µM)
MIC Enterococcus faecalis (ATCC 29212) [1, 13]: 16 µg/mL (≈ 11 µM)
MIC Enterococcus faecalis (GC 2242) [1, 13]: 8 µg/mL (≈ 5.49 µM)
MIC Enterococcus faecalis (GC 2691) [1, 13]: 8 µg/mL (≈ 5.49 µM)
MIC Enterococcus faecalis (GC 3059) [1, 13]: 8 µg/mL (≈ 5.49 µM)
MIC Enterococcus faecalis (GC 4552) [1, 13]: 16 µg/mL (≈ 11 µM)
MIC Enterococcus faecalis (GC 4553) [1, 13]: 8 µg/mL (≈ 5.49 µM)
MIC Enterococcus faecalis (GC 4554) [1, 13]: 16 µg/mL (≈ 11 µM)
MIC Enterococcus faecalis (GC 6189) [1, 13]: 8 µg/mL (≈ 5.49 µM)
MIC Enterococcus faecium (GC 2243) [1, 13]: 8 µg/mL (≈ 5.49 µM)
MIC Enterococcus faecium (GC 4556) [1, 13]: 8 µg/mL (≈ 5.49 µM)
MIC Enterococcus faecium (GC 4557) [1, 13]: 4 µg/mL (≈ 2.74 µM)
MIC Escherichia coli (ATCC 25922) ([2]; Escherichia coli (ATCC 25922)): 64 µg/mL (≈ 43.9 µM)
MIC Escherichia coli (GC 4559) [2]: 64 µg/mL (≈ 43.9 µM)
MIC Escherichia coli (GC 4560) [2]: 8 µg/mL (≈ 5.49 µM)
MIC Staphylococcus aureus (ATCC 29213) [3]: 4 µg/mL (≈ 2.74 µM)
MIC Staphylococcus aureus (GC 1131) [3]: 8 µg/mL (≈ 5.49 µM)
MIC Staphylococcus aureus (GC 3051) [3]: 8 µg/mL (≈ 5.49 µM)
MIC Staphylococcus aureus (GC 3053) [3]: 8 µg/mL (≈ 5.49 µM)
MIC Staphylococcus aureus (GC 4541) [3]: 4 µg/mL (≈ 2.74 µM)
MIC Staphylococcus aureus (GC 4542) [3]: 4 µg/mL (≈ 2.74 µM)
MIC Staphylococcus aureus-SMITH (GC 4543) [3]: 4 µg/mL (≈ 2.74 µM)
MIC Staphylococcus aureus (GC 4544) [3]: 8 µg/mL (≈ 5.49 µM)
MIC Staphylococcus aureus (GC 4545) [3]: 4 µg/mL (≈ 2.74 µM)
MIC Coagulase Negative Staphylococcus (GC 4547) [3]: 8 µg/mL (≈ 5.49 µM)
MIC Coagulase Negative Staphylococcus (GC 4548) [3]: 4 µg/mL (≈ 2.74 µM)
MIC Coagulase Negative Staphylococcus (GC 4549) [3]: 4 µg/mL (≈ 2.74 µM)
MIC Coagulase Negative Staphylococcus (GC 4551) [3]: 4 µg/mL (≈ 2.74 µM)
MIC Coagulase Negative Staphylococcus (GC 6257) [3]: 4 µg/mL (≈ 2.74 µM)
MIC Streptococcus agalactiae (GC 4564) [4, 14]: 2 µg/mL (≈ 1.37 µM)
MIC Streptococcus pneumoniae (ATCC 6301) [4, 15]: 1 µg/mL (≈ 0.686 µM)
MIC Streptococcus pneumoniae (GC 1894) [4, 16]: 0.25 µg/mL (≈ 0.172 µM)
MIC Streptococcus pneumoniae (GC 4565) [4, 17]: 2 µg/mL (≈ 1.37 µM)
MIC Streptococcus pyogenes (GC 4563) [4, 18]: 2 µg/mL (≈ 1.37 µM)
MIC Streptococcus agalactiae (GC 4564) [4, 13]: 2 µg/mL (≈ 1.37 µM)
MIC Streptococcus pneumoniae (ATCC 6301) [4, 13]: 1 µg/mL (≈ 0.686 µM)
MIC Streptococcus pneumoniae (GC 1894) [4, 13]: 0.25 µg/mL (≈ 0.172 µM)
MIC Streptococcus pneumoniae (GC 4565) [4, 13]: 2 µg/mL (≈ 1.37 µM)
MIC Streptococcus pyogenes (GC 4563) [4, 13]: 2 µg/mL (≈ 1.37 µM)
SMILES: CC(c1ccccc1)C1NC(=O)CNC(=O)C(CO)NC(=O)C(CC2CNC(=N)N2C2OC(CO)C(O)C(O)C2O)NC(=O)C(CC2CNC(=N)N2)NC(=O)C(Cc2ccc(OC3OC(CO)C(OC4OC5COC(c6ccc(OCc7ccccc7)cc6)OC5C(O)C4O)C(O)C3O)cc2)NC1=O (stereo not shown) [Example 191]
MIC Staphylococcus haemolyticus (GC 4546) [3]: 4 µg/mL (≈ 2.74 µM)

MIC Enterococcus avium (GC 4558) ([1]; Enterococcus avium (GC 4558)): 2 µg/mL (≈ 1.4 µM)
MIC Enterococcus faecalis (ATCC 29212) [1, 5]: 1 µg/mL (≈ 0.702 µM)
MIC Enterococcus faecalis (GC 2242) [1, 6]: 1 µg/mL (≈ 0.702 µM)
MIC Enterococcus faecalis (GC 2691) [1, 7]: 2 µg/mL (≈ 1.4 µM)
MIC Enterococcus faecalis (GC 3059) [1, 8]: 1 µg/mL (≈ 0.702 µM)
MIC Enterococcus faecalis (GC 4552) [1, 9]: 1 µg/mL (≈ 0.702 µM)
MIC Enterococcus faecalis (GC 4553) [1, 10]: 2 µg/mL (≈ 1.4 µM)
MIC Enterococcus faecalis (GC 4554) [1, 11]: 2 µg/mL (≈ 1.4 µM)
MIC Enterococcus faecalis (GC 6189) [1, 12]: 0.5 µg/mL (≈ 0.351 µM)
MIC Enterococcus faecium (GC 2243) ([1]; Enterococcus faecium (GC 2243)): 1 µg/mL (≈ 0.702 µM)
MIC Enterococcus faecium (GC 4556) ([1]; Enterococcus faecium (GC 4556)): 1 µg/mL (≈ 0.702 µM)
MIC Enterococcus faecium (GC 4557) ([1]; Enterococcus faecium (GC 4557)): 2 µg/mL (≈ 1.4 µM)
MIC Enterococcus avium (GC 4558) [1, 13]: 2 µg/mL (≈ 1.4 µM)
MIC Enterococcus faecalis (ATCC 29212) [1, 13]: 1 µg/mL (≈ 0.702 µM)
MIC Enterococcus faecalis (GC 2242) [1, 13]: 1 µg/mL (≈ 0.702 µM)
MIC Enterococcus faecalis (GC 2691) [1, 13]: 2 µg/mL (≈ 1.4 µM)
MIC Enterococcus faecalis (GC 3059) [1, 13]: 1 µg/mL (≈ 0.702 µM)
MIC Enterococcus faecalis (GC 4552) [1, 13]: 1 µg/mL (≈ 0.702 µM)
MIC Enterococcus faecalis (GC 4553) [1, 13]: 2 µg/mL (≈ 1.4 µM)
MIC Enterococcus faecalis (GC 4554) [1, 13]: 2 µg/mL (≈ 1.4 µM)
MIC Enterococcus faecalis (GC 6189) [1, 13]: 0.5 µg/mL (≈ 0.351 µM)
MIC Enterococcus faecium (GC 2243) [1, 13]: 1 µg/mL (≈ 0.702 µM)
MIC Enterococcus faecium (GC 4556) [1, 13]: 1 µg/mL (≈ 0.702 µM)
MIC Enterococcus faecium (GC 4557) [1, 13]: 2 µg/mL (≈ 1.4 µM)
MIC Escherichia coli (GC 4559) [2]: 32 µg/mL (≈ 22.5 µM)
MIC Escherichia coli (GC 4560) [2]: 2 µg/mL (≈ 1.4 µM)
MIC Staphylococcus aureus (ATCC 29213) [3]: 0.5 µg/mL (≈ 0.351 µM)
MIC Staphylococcus aureus (GC 1131) [3]: 1 µg/mL (≈ 0.702 µM)
MIC Staphylococcus aureus (GC 3051) [3]: 1 µg/mL (≈ 0.702 µM)
MIC Staphylococcus aureus (GC 3053) [3]: 0.5 µg/mL (≈ 0.351 µM)
MIC Staphylococcus aureus (GC 4541) [3]: 0.5 µg/mL (≈ 0.351 µM)
MIC Staphylococcus aureus (GC 4542) [3]: 0.25 µg/mL (≈ 0.176 µM)
MIC Staphylococcus aureus-SMITH (GC 4543) [3]: 0.5 µg/mL (≈ 0.351 µM)
MIC Staphylococcus aureus (GC 4544) [3]: 1 µg/mL (≈ 0.702 µM)
MIC Staphylococcus aureus (GC 4545) [3]: 0.5 µg/mL (≈ 0.351 µM)
MIC Coagulase Negative Staphylococcus (GC 4547) [3]: 1 µg/mL (≈ 0.702 µM)
MIC Coagulase Negative Staphylococcus (GC 4548) [3]: 0.25 µg/mL (≈ 0.176 µM)
MIC Coagulase Negative Staphylococcus (GC 4549) [3]: 0.25 µg/mL (≈ 0.176 µM)
MIC Coagulase Negative Staphylococcus (GC 4551) [3]: 0.5 µg/mL (≈ 0.351 µM)
MIC Coagulase Negative Staphylococcus (GC 6257) [3]: 0.25 µg/mL (≈ 0.176 µM)
MIC Streptococcus agalactiae (GC 4564) [4, 14]: <0.06 µg/mL
MIC Streptococcus pneumoniae (ATCC 6301) [4, 15]: 0.12 µg/mL (≈ 0.0843 µM)
MIC Streptococcus pneumoniae (GC 1894) [4, 16]: <0.06 µg/mL
MIC Streptococcus pneumoniae (GC 4565) [4, 17]: <0.06 µg/mL
MIC Streptococcus pyogenes (GC 4563) [4, 18]: <0.06 µg/mL
MIC Streptococcus agalactiae (GC 4564) [4, 13]: <0.06 µg/mL
MIC Streptococcus pneumoniae (ATCC 6301) [4, 13]: 0.12 µg/mL (≈ 0.0843 µM)
MIC Streptococcus pneumoniae (GC 1894) [4, 13]: <0.06 µg/mL
MIC Streptococcus pneumoniae (GC 4565) [4, 13]: <0.06 µg/mL
MIC Streptococcus pyogenes (GC 4563) [4, 13]: <0.06 µg/mL
SMILES: CC(c1ccc(Cl)cc1)C1NC(=O)CNC(=O)C(CO)NC(=O)C(C(O)C2CNC(=N)N2C2OC(CO)C(O)C(O)C2O)NC(=O)C(C(O)C2CNC(=N)N2)NC(=O)C(Cc2ccc(OC3OC(CO)C(OC4OC5COC(C6CCCCC6)OC5C(O)C4O)C(O)C3O)cc2)NC1=O (stereo not shown) [Example 193]
MIC Staphylococcus haemolyticus (GC 4546) [3]: 0.5 µg/mL (≈ 0.351 µM)
